Measured values published in article PMC3663124, “S-Adenosyl-S-carboxymethyl-L-homocysteine: a novel cofactor found in the putative tRNA-modifying enzyme CmoA” (Acta Crystallographica Section D: Biological Crystallography, 2013).

Molecular target: T1, CmoA (Escherichia coli, UniProt P76290)
T1 construct: R100H versus P76290 (PCR mutation or strain difference); expressed in E. coli Rosetta pLysS (DE3); dimer; residues 19-247 (chain A) and 20-244 (chain B) modelled
Test: X-ray crystal structure ([…] A); FT-MS of released ligand
Assay type: binding
Details: copurified from E. coli expression host; carboxymethyl carboxylate salt bridge to Arg199; putative active site

T1 sequence (P76290 whole entry R100H, the tested form may be a part): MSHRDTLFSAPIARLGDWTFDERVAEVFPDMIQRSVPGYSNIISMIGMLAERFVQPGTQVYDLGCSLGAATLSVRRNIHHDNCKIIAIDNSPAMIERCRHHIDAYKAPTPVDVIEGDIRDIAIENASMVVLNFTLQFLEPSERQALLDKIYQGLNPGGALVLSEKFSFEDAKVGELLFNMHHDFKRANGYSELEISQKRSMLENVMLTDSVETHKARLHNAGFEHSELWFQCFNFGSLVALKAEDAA

## Nc1ncnc2c1ncn2[C@@H]1O[C@H](C[S+](CC[C@H](N)C(=O)O)CC(=O)O)[C@@H](O)[C@H]1O (stereo partly drawn) [[(3S)-3-amino-3-carboxypropyl]{[(2S,3S,4R,5R)-5-(6-aminopurin-9-yl)-3,4-dihydroxyoxolan-2-yl]methyl}(carboxymethyl)sulfanium]
  X-ray crystal structure (1.73 A); FT-MS of released ligand: both molecules of CmoA contain the novel derivative S-adenosyl-S-carboxymethyl-L-homocysteine (SCM-SAH)
